Like-named read-outs stand apart in the source and are kept apart here.
Legend:
[1] = design: method as in PMID 26420856; conditions: mice, rapid clearance; cited from earlier work
5HT2A = test system: 5HT2A; design: method as in PMID 27974147; conditions: antagonistic activity on 5-HT2 receptors; cited from earlier work
DGK isoforms = test system: DGK isoforms; design: method as in PMID 10718334, PMID 23949095; conditions: cited from earlier work
XLP-1 model = conditions: cited from earlier work
[2] = test system: T cells from XLP-1 patients; design: method as in PMID 26764158; conditions: pre-treatment with inhibitor; cited from earlier work
DGKα [3] = molecular target: T1, DGKα (Homo sapiens, UniProt P23743); experiment: DGK assay on OST-DGKα enriched MDCK homogenates; type: biochemical; design: expressed in transfected cells; host or cells: MDCK cells (vector-infected, doxycycline-induced), crude homogenate; conditions: for remaining activity at 100 µM: percentage of residual DGKα activity compared to DMSO control, OST-DGKα overexpressing cell lysates, saturating DAG and ATP, read-out: Residue activity at 100 µM
T1 sequence (P23743 whole entry): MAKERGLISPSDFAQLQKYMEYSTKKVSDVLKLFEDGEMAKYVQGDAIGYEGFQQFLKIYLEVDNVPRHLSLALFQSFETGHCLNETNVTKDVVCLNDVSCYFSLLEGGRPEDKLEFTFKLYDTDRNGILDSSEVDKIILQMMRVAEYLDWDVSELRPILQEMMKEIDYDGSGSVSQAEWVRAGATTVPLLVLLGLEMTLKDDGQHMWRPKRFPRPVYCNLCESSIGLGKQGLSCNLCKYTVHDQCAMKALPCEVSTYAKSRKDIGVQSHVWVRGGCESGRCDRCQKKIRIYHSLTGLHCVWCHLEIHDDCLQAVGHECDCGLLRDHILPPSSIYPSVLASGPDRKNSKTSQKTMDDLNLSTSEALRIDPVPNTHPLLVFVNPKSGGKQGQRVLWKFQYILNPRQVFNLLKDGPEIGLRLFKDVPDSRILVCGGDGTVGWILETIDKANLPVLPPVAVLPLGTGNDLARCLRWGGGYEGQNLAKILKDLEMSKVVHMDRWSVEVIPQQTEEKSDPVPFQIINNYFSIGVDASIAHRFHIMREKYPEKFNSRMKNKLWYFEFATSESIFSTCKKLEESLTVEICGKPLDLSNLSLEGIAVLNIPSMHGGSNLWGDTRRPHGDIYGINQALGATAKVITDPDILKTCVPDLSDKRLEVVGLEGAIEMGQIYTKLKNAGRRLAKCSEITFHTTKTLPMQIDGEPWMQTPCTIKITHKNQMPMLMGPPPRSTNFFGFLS
Experimental: Madin-Darby canine kidney (MDCK) cells stably expressing One Strep Tag DGKα (OST-DGKα) were prepared by infecting MDCK cells with a vector expressing an inducible OST tagged DGKα constructs. MDCK cells infected with empty vector were used as controls. MDCK cells were cultured in MEM (minimal essential medium) with 5% FBS (foetal bovine serum) and 1% antibiotic–antimycotic solution. Routinely, cells were splitted every 3–4 days with trypsin–EDTA 0.25% in standard 100 mm dishes.
Large cultures of MDCK cells for enzyme preparation were done by plating 5 × 10^6 cells in 245 mm^2 dishes. Once they reached nearly 70% confluence, cells were treated with doxycycline (1 µg/mL, two days). […] Cells were collected with a rubber scraper, homogenised by passing them through a 29 G-needle syringe 20 times and stored in aliquots at –80 °C. Presence of OST-DGKα was confirmed by western blotting and enzyme assay, transduced DGKα has an activity >100 folds the endogenous DGK.
Essentionally, the same procedure was followed as reported previously in Velnati et al.[9] In brief, DGK activity was assayed by measuring initial velocities (5 min at 27 °C) in presence of saturating substrate concentrations. Reaction conditions: 0.9 µg/µL 1,2-dioleoyl-sn-glycerol, 5 mM ATP, 0.01 µCi/µL [γ^32P]-ATP, 1 mM sodium orthovanadate, 10 mM MgCl2, 1.2 mM EGTA in 7.5 mM Hepes pH 8[12]. Reaction mixture is assembled mixing enzyme (24.5 µL of homogenate), 100× inhibitor or DMSO (0.5 µL), 5× ATP solution (10 µL of 25 mM ATP, 0.05 µCi/µL [γ^32P]-ATP (Perkin-Elmer, Milan, Italy), 5 mM sodium orthovanadate, 50 mM MgCl2), and 3.3× DAG solution (15 µL of 3 µg/µL 1,2-dioleoyl-sn-glycerol resuspended by sonication in 4 mM EGTA in 25 mM Hepes pH 8). The reaction was stopped after 5 min by adding 200 µL of freshly prepared 1 M HCl and lipid was extracted by adding 200 µL of CH3OH:CHCl3 1:1 solution and vortexing for 1 min. The two phases were separated by centrifugation (12,000 RCF for 2 min). Twenty-five microlitres of the lower organic phase was spotted in small drops on silica TLC plates. TLC was run 10 cm and dried before radioactive signals were detected by GS-250 molecular imager and was quantified by quantity one (Bio-Rad, Hercules, CA) software assuring the absence of saturated spots.
Percentage residual activity was calculated as follows: (OST-DGKα homogenate with inhibitor – vector homogenate)/(OST-DGKα homogenate with DMSO – vector homogenate)×100.
Data for the screen on OST-DGKα homogenates are the mean of duplicates. The compounds showing inhibitory activity in this assay were tested >4 times and the mean ± SEM is reported.
To calculate IC50 values of active inhibitors, the inhibitor activity was measured at least three times at 0.1, 1.0, 10.0, and 100.0 µM concentration. Data were analysed using [inhibitor] vs. normalised response parameters with least square [ordinary] curve fitting method in GraphPad PRISM 8.0 software (GraphPad Software, La Jolla, CA) mentioning 95% confidence interval and IC50 values always greater than 0.0. […] In all the experiments, the data were normalised with the controls.
Each inhibitor was tested in duplicate at least once, and DGKα activity was expressed as percentage of residual DGKα activity compared to DMSO control in the same assay. Assay uses OST-DGKα overexpressing cell lysates in presence of saturating exogenous DAG and ATP. We considered R59022 (commercially available) and the lead compound Amb63975230 as our reference molecules.
To measure the inhibitor potency, we determined the IC50 values for the compounds that resulted active when tested at 100 µM by measuring the residual OST-DGKα activity over a dose range of inhibitor concentrations (0.1 µM, 1.0 µM, 10.0 µM, and 100.0 µM).

DGKα [4] = molecular target: T1, DGKα; design: expressed in transfected cells; host or cells: MDCK cells (vector-infected, doxycycline-induced), crude homogenate; method as in PMID 30611057; conditions: in our assay system; cited from earlier work
SAP-deficient T cells = experiment: RICD assay in SAP silenced T cells; type: cell-based, human; conditions: 10 µM, 30 min pre-treatment; OKT3 10 ng/mL, 24 h; SAP siRNA
Experimental: PBL were isolated from healthy anonymous human donors by Ficoll-Paque PLUS (GE Healthcare, Chicago, IL) density gradient centrifugation, washed, and resuspended at 2 × 10^6 cell/mL in RPMI-GlutaMAX containing 10% heat inactivated FCS, 2 mM glutamine, and 100 U/mL of penicillin and streptomycin. T cells were activated with 1 µg/mL anti-CD3 (UCHT1) and anti-CD28 (clone CD28.2) antibodies. After three days, activated T cells were washed and cultured in medium additionated of 100 IU/mL rhIL-2 (Peprotech, Rocky Hill, NJ) at 1.2 × 10^6 cells/mL for ≥7 days by changing media for every 2–3 days.
Activated human PBLs were transfected with 200 pmol of siRNA oligonucleotides specific for the target protein (Stealth Select siRNA; Life Technologies, Carlsbad, CA) or a non-specific control oligo (Life Technologies, Carlsbad, CA). Transient transfections were performed using Amaxa nucleofector kits for human T cells (Lonza, Basel, Switzerland) and the Amaxa Nucleofector II or 4D systems (programmes T-20 or EI-115). Cells were cultured in IL-2 (100 IU/mL) for four days to allow target gene knockdown. Knockdown efficiency was periodically evaluated by Western blotting.
To test restimulation induced cell death, activated T cells (10^5 cells/well) were plated in triplicate in 96-well round-bottom plate and treated with anti-CD3 (clone OKT3) (10 ng/mL) in RPMI-GlutaMAX supplemented with 100 IU/mL rhIL-2 for 24 h. In these assays, inhibitors (10 µM) were added 30 min before the restimulation with OKT3. 24 h after treatment, cells were stained with 20 ng/mL propidium iodide and collected for a constant time of 30 s per sample on Attune Nxt Flow Cytometer (Thermo Fisher Scientific, Waltham, MA). Cell death is expressed as % cell loss and calculated as: % cell loss=(1−(number of viable cells in sample/number of viable cells in control)×100)
Results were expressed as mean ± standard error of the mean (SEM). We always compared controls and SAP silenced lymphocytes from the same donors as there is a large individual variability in RICD sensitivity.
To evaluate inhibitor efficacy in physiological context, we modelled XLP-1 by silencing SAP in primary peripheral blood T lymphocytes (PBLs) and restimulating them with anti-CD3 antibody (OKT3 10 ng/mL, 24 h). We pre-treated the cells with the indicated inhibitors for 30 min at a concentration of 10 µM[8].
Figure 9. DGKα inhibitors partially restores apoptosis in SAP deficient lymphocytes. […] After 4 days, the cells were restimulated with CD3 agonist OKT3 (10 ng/mL) in presence of respective inhibitor. Vehicle (DMSO) was used as control. Twenty-four hours later, the % of cell loss was evaluated by PI staining. Data are the mean ± SEM of nine independent experiments performed in triplicate.

serotonin receptors [5] = experiment: Superoxide anion production: serotonin effect on PMA-induced oxidative burst in monocytes; type: cell-based; conditions: drugs 10 µM, 1 h; serotonin 1 µM; PMA 1 µM 30 min; human monocytes
Experimental: Human monocytes were isolated from healthy anonymous human buffy coats (provided by the Transfusion Service of Ospedale Maggiore della Carità, Novara, Italy) by the standard technique of dextran sedimentation and Histopaque (density = 1.077 g cm^3, Sigma-Aldrich, Milano, Italy) gradient centrifugation (400×g, 30 min, room temperature) and recovered by fine suction at the interface, as described previously. Purified monocytes populations were obtained by adhesion (90 min, 37 °C, 5% CO2) in serum-free RPMI 1640 medium (Sigma-Aldrich, Milano, Italy) supplemented with 2 mM glutamine and antibiotics. Cell viability (trypan blue dye exclusion) was usually >98%.
All the experiments were performed in triplicate using cells isolated from each single donor.
Monocytes (250,000 cells/well) were treated for 1 h with the indicated drugs (10 µM) with or without serotonin (1 µM). Then, cells were stimulated with phorbol 12-myristate 13-acetate (PMA; Sigma-Aldrich, Milano, Italy) 1 µM for 30 min. PMA is a well-known stimulus that induces a strong and significant respiratory burst via PKC activation. Superoxide anion production was then evaluated by the superoxide dismutase (SOD)-sensitive cytochrome C (CytC) reduction assay and expressed as nmoles CytC reduced/10^6 cells/30 min, using an extinction coefficient of 21.1 mM. To avoid interference with spectrophotometrical recordings, cells were incubated with RPMI 1640 without phenol red, antibiotics, and FBS.
To this purpose, we measured the effect of serotonin on PMA-induced oxidative burst in human monocytes. As previously shown, 1 µM serotonin reverses the oxidative burst to control values.
Figure 8. […] Results are expressed as n moles of reduced cytochrome C/10^6 cells. Data are means ± SEM of 10 independent experiments performed in triplicate.

serotonin receptors [6] = conditions: read-out: IC50 as serotonin antagonist; cited from earlier work
dopaminergic receptors = molecular target: dopaminergic receptors; design: method as in PMID 2860558; conditions: cited from earlier work
[7] = design: method as in PMID 27974147; conditions: in human; cited from earlier work

SMILES | t1/2 [1] | IC50 (5HT2A) | DGK isoforms targeted (DGK isoforms) | effect in an in vivo model of XLP-1 (XLP-1 model) | rescue of defective RICD in T cells from XLP-1 patients [2] | inhibition at 100 µM (DGKα [3]; 100 µM) | remaining activity at 100 µM (DGKα [3]; 100 µM) | IC50 (DGKα [3]; residual OST-DGKα activity at 0.1, 1.0, 10.0 and 100.0 µM) | IC50 (DGKα [4]) | rescue of RICD (apoptosis) in SAP-deficient T cells (SAP-deficient T cells) | effect on serotonin action on PMA-induced oxidative burst (serotonin receptors [5]) | IC50 (serotonin receptors [6]) | IC50 (dopaminergic receptors) | t1/2 [7]
Cc1nc2sccn2c(=O)c1CCN1CCC(=C(c2ccccc2)c2ccc(F)cc2)CC1 [Compound R59022] | ~2 h | 2.2 nM | type III and V (ε e θ) | beneficial effects | rescued | 73% | 27% | 15200 ± 5800 nM |  |  |  |  |  | 
O=c1c2ccccc2[nH]c(=S)n1CCN1CCC(=C(c2ccc(F)cc2)c2ccc(F)cc2)CC1 [Compound R59949, 3-[2-(4-[bis-(4-fluorophenyl)methylene]-1-piperidinyl)ethyl]-2,3-dihydro-2-thioxo-4(1h)quinazolinone] | ~2 h | 9.2 nM | type I and II (γ, δ e κ) |  | rescued |  | 28% |  | 11000 nM |  |  |  |  | 
O=C(c1ccc(F)cc1)C1CCN(CCn2c(=O)[nH]c3ccccc3c2=O)CC1 [ketanserin, reference compound] |  |  |  |  |  |  |  |  |  | inactive | impaired serotonin action |  |  | 
Cc1nc2sccn2c(=O)c1CCN1CCC(=C(c2ccc(F)cc2)c2ccc(F)cc2)CC1 [ritanserin] |  |  |  |  |  |  |  |  | 17000 nM |  | impaired serotonin action | 0.9 nM | 69 nM | 40 h
